# Measured values from patent US9545385B2, “Inhibitors of hemeprotein-catalyzed lipid peroxidation” (VANDERBILT UNIVERSITY, priority 2013, dated 2017).
# Columns and labels:
# [1] = Antioxidant rate constant kinh in chemical tests, relative to α-TOH
# Source text: Antioxidants, most commonly substituted phenols, effectively intercept peroxyls by transferring the phenolic H-atom to a propagating peroxyl radical, with a rate constant kinh that is faster than that of chain propagation. The most famous example of a phenolic antioxidant is vitamin E (α-toco-pherol, α-TOH) nature's hydrophobic defense against radical chain oxidation.
# Compounds of the present invention have a higher kinh and serve as better antioxidants than α-TOH in chemical tests. The critical antioxidant step is shown in Equation 1, the larger the kinh, the better the antioxidant. The simple pyridinol 2a shown below is nearly 5 times better than α-TOH as an antioxidant and the bicyclic compounds 3a and 4a are over 20 times better than the vitamin. […]
# [2] = Direct cellular toxicity (total cellular ATP levels); assay type: cell-based; conditions: human, HepG2 cells, read-out: Cellular Toxicity (EC50, μM ± SD)
# Source text: Values represent means±S.E.M.
# Microsomal stability = conditions: % of unmodified compound remaining after reaction; human liver microsomes
# COX-1 = COX-1 (Homo sapiens, UniProt P23219); test: Inhibition of COX-1-catalyzed oxidation of arachidonic acid (Example 6); assay type: biochemical
# Sequence of COX-1 (P23219 24-599, species assumed): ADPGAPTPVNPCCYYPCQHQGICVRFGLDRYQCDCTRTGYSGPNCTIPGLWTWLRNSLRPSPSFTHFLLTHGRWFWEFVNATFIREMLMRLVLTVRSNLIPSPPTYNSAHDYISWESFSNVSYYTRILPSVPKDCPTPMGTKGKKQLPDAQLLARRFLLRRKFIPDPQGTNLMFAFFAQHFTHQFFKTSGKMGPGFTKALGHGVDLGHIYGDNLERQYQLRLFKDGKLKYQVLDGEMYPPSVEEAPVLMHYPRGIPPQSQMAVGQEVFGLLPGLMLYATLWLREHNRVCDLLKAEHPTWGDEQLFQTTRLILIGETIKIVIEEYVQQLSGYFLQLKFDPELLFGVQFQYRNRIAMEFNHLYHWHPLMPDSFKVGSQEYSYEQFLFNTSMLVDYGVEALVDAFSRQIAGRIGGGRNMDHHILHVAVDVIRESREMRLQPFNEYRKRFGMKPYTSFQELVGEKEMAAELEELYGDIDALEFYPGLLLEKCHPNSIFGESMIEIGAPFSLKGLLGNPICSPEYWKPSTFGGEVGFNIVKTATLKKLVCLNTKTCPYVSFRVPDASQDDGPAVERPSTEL
# Description: (§1) The inhibition of the lipid peroxidation produced by myoglobin (Mb) and COX-1 by the different analogs was tested. Values represent the IC50 for each hemeprotein and are expressed as means±S.E.M. a: value reported from (1.). b: value reported from (3).
# myoglobin (Mb) = biological target: T1, myoglobin (Mb) (Homo sapiens, UniProt P02144); test: Inhibition of myoglobin-induced oxidation of arachidonic acid; assay type: biochemical; conditions: among ApAP and analogs 12-14
# T1 sequence (P02144 1-154): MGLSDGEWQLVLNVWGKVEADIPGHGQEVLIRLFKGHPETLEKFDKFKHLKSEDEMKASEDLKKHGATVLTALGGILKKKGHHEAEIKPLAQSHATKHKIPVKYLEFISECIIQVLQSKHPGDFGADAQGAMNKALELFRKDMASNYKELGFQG
# Description: as §1
# [3] = tested on: rat model of rhabdomyolysis; test: Rat model of rhabdomyolysis (myoglobin-catalyzed lipid peroxidation, renal failure); assay type: in vivo; conditions: dose giving plasma levels in the human therapeutic range
# HepG2 liver cell line = tested on: HepG2 liver cell line
# Description: HepG2 were plated in multiple 96-well plates at 2×10^4 cells per well and pretreated with ethanol 100 μM for 2 hours. […] Cell viability after 24 h was determined by measuring ATP levels by luminescence assay.
# ferryl myoglobin = biological target: T2, ferryl myoglobin (Homo sapiens, UniProt P02144); test: Reduction of ferryl myoglobin to ferric myoglobin; assay type: biochemical; conditions: compared with acetaminophen
# T2 sequence (P02144 1-154): T1 sequence (P02144 1-154)
# Description: Ferryl myoglobin was generated by incubating ferric myoglobin 10 μM in PBS with 10 μM hydrogen peroxide until there was no more change in the peak at 421 nm. At this time, the analogs were added to the cuvette at the final concentrations indicated and spectra were recorded every 15 sec for 2 min. The initial rate of reduction was calculated as the variation of absorbance at 409 nm in the first two minutes after adding the analogs. In this period of time the rates of reduction were linear for each concentration of analog.
# PGHS-2 (COX-2) = biological target: T3, PGHS-2 (COX-2) (Homo sapiens, UniProt P35354); test: Inhibition of hematin-reconstituted COX-2, [14C] arachidonic acid oxidation; assay type: biochemical; conditions: compared with PGHS-1
# T3 sequence (P35354 18-604): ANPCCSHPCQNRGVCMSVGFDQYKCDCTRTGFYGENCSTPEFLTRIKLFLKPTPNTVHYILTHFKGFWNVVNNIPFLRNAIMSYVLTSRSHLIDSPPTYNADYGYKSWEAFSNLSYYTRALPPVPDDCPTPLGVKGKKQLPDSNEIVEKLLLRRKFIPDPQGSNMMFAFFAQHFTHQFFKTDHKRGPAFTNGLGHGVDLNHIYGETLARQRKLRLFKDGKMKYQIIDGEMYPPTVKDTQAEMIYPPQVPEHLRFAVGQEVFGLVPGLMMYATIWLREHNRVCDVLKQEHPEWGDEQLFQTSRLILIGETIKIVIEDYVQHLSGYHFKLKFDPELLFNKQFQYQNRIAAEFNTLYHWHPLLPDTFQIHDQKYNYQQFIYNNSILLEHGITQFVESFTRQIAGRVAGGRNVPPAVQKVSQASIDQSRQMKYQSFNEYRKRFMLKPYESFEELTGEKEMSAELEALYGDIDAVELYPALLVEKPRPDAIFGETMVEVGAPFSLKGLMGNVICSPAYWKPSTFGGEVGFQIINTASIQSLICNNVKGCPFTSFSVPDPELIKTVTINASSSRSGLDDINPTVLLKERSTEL
# Description: Hematin-reconstituted COX-1 (5.4 nM) or COX-2 (10.8 nM) in Tris HCl 100 mM, pH 8.0, 500 μM phenol, was pre-incubated with N-dimethyl pyrimidinol (DM, plain line) or N-dimethyl pyridinol (DR, dashed line) at varying concentrations at 37° C. for 20 minutes. At this time the reaction was initiated by addition of 0.5 μM of [14C] arachidonic acid. After 8 seconds, the reaction was stopped by adding an ice cold mixture of diethyl ether/methanol/4.0 M citric acid. PGHS-1 activity was expressed as percent oxidation of arachidonic acid compared with control where no inhibitor was added. Each data point represents the mean±S.E.M of six values.
structure (smiles),measurement,setting,value
Cc1cc(N(C)C)nc(C)c1O [Analog 2a],"antioxidant potency, times better than α-TOH",[1],~5 times
O=C1NCc2cc(O)cnc2N1 [Analog 12],EC50 at 24 h,[2],4760 ± 36 µM
same,Microsomal stability % left,Microsomal stability,158 ± 33%
Cc1nc2c(c(C)c1O)CNC(=O)N2 [Analog 13],"inhibition of COX-1, in words",COX-1; at concentrations up to 1 mM,not able to significantly inhibit
same,EC50 at 24 h,[2],2960 ± 284 µM
same,Microsomal stability % left,Microsomal stability,87 ± 7%
Cc1nc2c(c(C)c1O)COC(=O)N2 [Analog 14],rank in inhibiting COX-1 activity,COX-1; among ApAP and analogs 12-14,most potent
same,rank in inhibiting myoglobin-induced arachidonic oxidation,myoglobin (Mb),least potent
same,EC50 at 24 h,[2],> 5000 µM
same,Microsomal stability % left,Microsomal stability,97 ± 3%
"CC(=O)Nc1ccc(O)cc1 [ApAP, acetaminophen]",lipid peroxidation in rhabdomyolysis model,[3]; listed as Acetaminophen,blocked lipid peroxidation
same,renal failure in rhabdomyolysis model,[3]; listed as Acetaminophen,prevented the renal failure
same,lipid peroxidation in rhabdomyolysis model,[3]; listed as acetaminophen,blocks
same,renal failure in rhabdomyolysis model,[3]; listed as acetaminophen,blocks
same,EC50 at 24 h,[2],594 ± 147 µM
"CN(C)c1ncc(O)cn1 [DM-Pym, 2-(dimethylamino)pyrimidin-5-ol]",cytotoxicity in ethanol-induced HepG2 model,HepG2 liver cell line,does not cause cytotoxicity
same,potency in reducing ferryl myoglobin,ferryl myoglobin,remarkably more potent than acetaminophen
"CN(C)c1ccc(O)cn1 [DM-Pyr, 6-(dimethylamino) pyridin-3-ol]","inhibition of PGHS-2 (COX-2), in words",PGHS-2 (COX-2),only a weak inhibitor
